According to article PMC12610274, “Identification of Marrubiin as a Cathepsin C Inhibitor for Treating Rheumatoid Arthritis” (Molecules, 2025):

How the values were obtained:
[1] = biological target: T1, CTSL (Homo sapiens, UniProt P07711); test: Human recombinant cathepsins isolated enzyme assay, CTSL; type: biochemical; details: read-out: CTSL Enz (IC50: μM)
T1 construct: purchased R&D Systems
From the text: The protocol for evaluating the inhibitory potency of compounds against other cathepsins referred to the CTSC activity assay. Recombinant human CTSB, CTSL, CTSS and CTSK for testing were also purchased from R&D Systems Biotechnology Company. Recombinant human Cat G, NE, and PR3 For testing were purchased from MedChemExpress. A multi-functional microplate reader was used to measure the absorption of Z-Leu-Arg-AMC at excitation/emission wavelengths of 380/460 nm to assess the activity changes of CTSB and CTSL, while the absorption of MCA-Arg-Pro-Lys-Pro-Val-Glu-NVAL-Trp-Arg-Lys(DNP)-NH2 at 320/405 nm was measured to evaluate the activity changes of CTSS and CTSK. Different assay buffers were prepared for diluting samples and measuring the activities of specific NSPs: a buffer containing 50 mM Tris and 750 mM NaCl (pH 7.4) was used for NE and PR3; a buffer containing 50 mM Tris, 750 mM NaCl, 5 mM EDTA (pH 7.4) was used for Cat G; and a buffer containing 25 mM MES, 50 mM NaCl, 5 mM DTT (pH 6.0) was used for CTSC. Synthetic substrates were employed to assess the activities of NSPs and CTSC: H-Gly-Arg-AMC for CTSC, N-MeSuc-Ala-Ala-Pro-Val-pNA for NE, aminobenzoyl-Val-Ala-Asp-Cys-Ala-Asp-Gln-ethylenediamine 2,4-dinitrophenyl for PR3, and N-Suc-Ala-Ala-Pro-Phe-pNA for Cat G. Each group of tests was independently repeated at least 3 times, and IC50 values were calculated using SPSS 10.0.

[2] = test system: PR3; test: Stability (protein level) of NSPs in U937 cells, Western blot, PR3; type: cell-based, human; details: U937, 10 μM
Method: The Western blot experiments in this study were performed as described below. Cells in the logarithmic growth phase were collected in appropriate numbers according to different experimental purposes. After being thoroughly washed with phosphate-buffered saline and centrifuged, the cell pellets were resuspended in phosphate-buffered saline to obtain single-cell suspensions. Cells were fully lysed using RIPA buffer (Beyotime, P0013B) supplemented with EDTA-free protease and phosphatase inhibitor (Abcam, ab201120). Total cellular protein solutions were obtained after centrifugation to remove cell debris. The isolated proteins were quantified using the BeyoBCA protein assay kit (Beyotime, P0399M) following the operational protocol. The quantified protein samples were thoroughly mixed with protein loading buffer, boiled on a dry bath for 5 min, and then cooled to room temperature for Western blot analysis. […] Finally, enhanced chemiluminescent horseradish peroxidase substrate (Tanon Science & Technology Co., Ltd., Shanghai, China, 180-506) was used to visualize protein bands on a ChemiDoc XRS system (Bio-Rad Laboratories, Inc., Hercules, CA, USA), and the protein bands were quantified using Image Lab analysis software (Version 6.1) (Bio-Rad). […]

[3] = test system: PR3; test: NSPs activity in U937 cells after 5 days of treatment, PR3; type: cell-based, human; details: U937, 10 μM
Method: U937 cells in the logarithmic growth phase were collected and equally divided into six portions. Four of these portions were treated with DMSO solutions of the test compound at varying concentrations to achieve final concentrations of 1.25, 2.5, 5, and 10 μM, respectively. An equal volume of DMSO was added to one portion as a blank control, while another portion treated with a DMSO solution of AZD7986 served as a positive control. The cells were cultured under standard U937 conditions for 5 consecutive days, with daily medium changes and fresh compound treatments administered using the same protocol. Following 5 days of treatment, cells were harvested, washed twice thoroughly with phosphate-buffered saline, and lysed in phosphate-buffered saline containing 1% Triton X-100. The lysates were centrifuged to collect the supernatant, and protein concentrations were determined as previously described to ensure equal total protein loading across all samples. The prepared samples were stored at −20 °C until further analysis. Different assay buffers were prepared for diluting samples and measuring the activities of specific NSPs: a buffer containing 50 mM Tris and 750 mM NaCl (pH 7.4) was used for NE and PR3; a buffer containing 50 mM Tris, 750 mM NaCl, 5 mM EDTA (pH 7.4) was used for Cat G; and a buffer containing 25 mM MES, 50 mM NaCl, 5 mM DTT (pH 6.0) was used for CTSC. […]

T1 sequence (P07711 114-333): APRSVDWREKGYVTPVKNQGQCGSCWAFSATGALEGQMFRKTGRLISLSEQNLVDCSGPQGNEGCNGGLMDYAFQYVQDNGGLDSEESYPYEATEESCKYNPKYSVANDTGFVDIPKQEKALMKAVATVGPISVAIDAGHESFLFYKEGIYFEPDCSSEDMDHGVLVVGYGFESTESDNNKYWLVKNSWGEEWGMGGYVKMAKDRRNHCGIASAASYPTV

Compound: C[C@@H]1C[C@H]2OC(=O)[C@@]3(C)CCC[C@@](C)([C@@H]23)[C@@]1(O)CCc1ccoc1 [Marrubiin, marrubiin]
- IC50 [1]: 4.4 ± 0.5 µM
- PR3 protein level, % of original level ([2]; 96 h): 28.2%
- PR3 protein level, % of original level ([2]; 5 days): 15.8%
- PR3 activity, % of DMSO group [3]: 10.3%
